According to PubChem BioAssay AID1996:
Converted amounts (≈) assume the structure as drawn.

settings: buffer; pH 7.4; 200.0 µM

SMILES | solubility kinetic
c1ccc2c(c1)[nH]c1cnccc12 | > 25.2 µg/mL
O=C(NC1=NCCS1)C1CCCCC1 | > 31.8 µg/mL
O=C(CSc1nc2cc(Cl)ccc2s1)NCC1CCCO1 (stereo not drawn) | > 51.4 µg/mL
CCOc1cc(/C=C2\C(=O)ON=C2c2ccccc2)ccc1OC | 46.1 µg/mL (≈ 143 µM)
CC(=O)Oc1ccc(C(=O)NC(C)CCc2ccccc2)cc1 (stereo not drawn) | 42.2 µg/mL (≈ 136 µM)
O=C(NCc1cccc(C(F)(F)F)c1)N1CCN(C(=O)c2ccccc2)CC1 | > 58.7 µg/mL
COc1ccccc1CNC(=O)CS(=O)(=O)c1ccc(C)cc1 | > 50 µg/mL
O=C(COC(=O)Cc1ccccc1F)NCc1ccc(Cl)cc1 | 17.5 µg/mL (≈ 52.1 µM)
CCc1nnc(NC(=O)CSc2nc(C)cs2)s1 | > 45.1 µg/mL
Cc1cc(C)c2c(=O)[nH]c(SCC(=O)N3CCOCC3)nc2n1 | > 50.2 µg/mL
O=C1CC(c2cccs2)Cc2nc(NC(=O)C3CC3)ncc21 (stereo not drawn) | 45.5 µg/mL (≈ 145 µM)
Cc1cc(=O)oc2cc(OCC(=O)NC3CCCCC3)c(Cl)cc12 | 4.6 µg/mL (≈ 13.1 µM)
COc1ccccc1NC(=O)CCSc1nc(C)cs1 | > 46.3 µg/mL
CCc1ccc(OCC(=O)Nc2ccncc2)c(Br)c1 | 15.5 µg/mL (≈ 46.2 µM)
O=C(Cc1c(Cl)cccc1Cl)NC1=NCCS1 | 19.2 µg/mL (≈ 66.4 µM)
O=C(COC(=O)Cc1c(Cl)cccc1Cl)NC1CCCC1 | > 49.5 µg/mL
CCCCN(C(=O)C1CC1)C1CCS(=O)(=O)C1 (stereo not drawn) | > 38.9 µg/mL
N#CCn1c(Cc2ccccc2)nc2ccccc2c1=O | > 41.3 µg/mL
COc1ccc(NC(=O)N2CCCc3ccccc32)cc1OC | > 46.9 µg/mL
O=C(Nc1ccc(S(=O)(=O)NC2=NCCCCC2)cc1)c1ccc(Cl)c([N+](=O)[O-])c1 | 22 µg/mL (≈ 48.8 µM)
NC(=O)c1c(NC(=O)COC(=O)c2ccc(O)c(Cl)c2)sc2c1CCCC2 | 8.5 µg/mL (≈ 20.8 µM)
CCC(=O)Nc1cc(-c2cc3ccccc3oc2=O)ccc1OC | 11 µg/mL (≈ 34 µM)
COc1ccc(OCCC(=O)OCC(=O)NC2CCCCC2)cc1 | 37 µg/mL (≈ 110 µM)
CC(CCc1ccccc1)NC(=O)CSc1ccccn1 (stereo not drawn) | 34.6 µg/mL (≈ 115 µM)

SMILES | solubility kinetic
COc1ccc(C2NC(=O)CCC2[N+](=O)[O-])cc1 (stereo not drawn) | > 37.5 µg/mL
CC(=O)N(C)c1ccc(NC(=O)Nc2cccc3ccccc23)cc1 | 1.3 µg/mL (≈ 3.9 µM)
Cc1ccc(S(=O)(=O)c2c(C)c(C)c(C)[nH]c2=O)cc1 | 29.7 µg/mL (≈ 102 µM)
CC1(C)Cc2nc3sc(C(N)=O)c(N)c3cc2CO1 | > 41.6 µg/mL
CCOc1ccccc1N1CCN(C(=O)c2ccc3nc(N)sc3c2)CC1 | 7.5 µg/mL (≈ 19.6 µM)
CC(C)C[C@H](NC(=O)Nc1ccc2c(c1)OCCO2)C(=O)O | 41.1 µg/mL (≈ 133 µM)
O=C(COC(=O)Cc1cccc(F)c1)NC(=O)NC1CCCCC1 | > 50.5 µg/mL
CCCC[N+]1(C)[C@@H]2CC(OC(=O)[C@H](CO)c3ccccc3)C[C@H]1[C@@H]1O[C@@H]12.[Br-] (stereo partly drawn) | > 66.1 µg/mL
Nc1cc(=O)[nH]c(SCC(=O)c2ccc(F)cc2)n1 | > 41.9 µg/mL
CCC12CN3CCN(CC(C3)/C1=N\NC(=O)c1ccc(Cl)cc1)C2 | > 52 µg/mL
CCN(CC)C(=O)CN1C(=O)/C(=C/c2ccccc2)SC1=S | 2.5 µg/mL (≈ 7.47 µM)
Cc1c(Cl)cccc1NC(=O)CCN1CCOCC1 | > 42.4 µg/mL
CCOc1ccccc1/C=C/c1cc(C(=O)O)c2ccccc2n1 | 45.8 µg/mL (≈ 143 µM)
Cc1ccc(S(=O)(=O)N(C)C)cc1NC(=O)C(C)OC(=O)c1cc[n+]([O-])cc1 (stereo not drawn) | > 61.1 µg/mL
COc1ccc(NC(=O)CC2CC3CCC2C3)cn1 (stereo not drawn) | 29.9 µg/mL (≈ 115 µM)
C=CCOc1ccccc1CNc1ccc2[nH]c(=O)[nH]c2c1 | > 44.3 µg/mL
COc1cccc(N2CCN(C(=S)Nc3ccc(C)cc3C)CC2)c1 | 0.6 µg/mL (≈ 1.69 µM)
Cc1nc(SCC(=O)N(C)C2CCS(=O)(=O)C2)c2ccccc2n1 (stereo not drawn) | > 54.8 µg/mL
Cc1ccccc1CN(C)C(C)C(=O)Nc1ccccc1F (stereo not drawn) | 8.1 µg/mL (≈ 27 µM)
Cc1cc(C(=O)N2CCC(Cc3ccccc3)CC2)no1 | 36.7 µg/mL (≈ 129 µM)
CCC(=O)N1c2ccccc2C(N(C(=O)CC)c2ccccc2)CC1C (stereo not drawn) | > 52.6 µg/mL
CC(=O)Nc1nc2ccccc2n1Cc1ccc(C)cc1 | 8.1 µg/mL (≈ 29 µM)
O=C(Nc1ccc([N+](=O)[O-])cc1)c1ccccc1 | 2.2 µg/mL (≈ 9.08 µM)
O=C(/C=C/c1ccccc1)OCCN1C(=O)c2ccccc2C1=O | < 0.7 µg/mL

Second part, the compound after the results:

solubility kinetic | SMILES
> 45.4 µg/mL | CC(C)c1ccccc1NC(=S)NCCCn1ccnc1
7.1 µg/mL (≈ 26 µM) | COc1ccc(CCNc2ccc([N+](=O)[O-])cn2)cc1
1.4 µg/mL (≈ 4.21 µM) | CCSc1ccccc1C(=O)Nc1ccc([N+](=O)[O-])cc1OC
3.9 µg/mL (≈ 11.9 µM) | O=C(COC(=O)c1ccc(F)cc1F)Nc1ccc(Cl)cn1
34.8 µg/mL (≈ 108 µM) | O=C(NCc1cccc(C(F)(F)F)c1)c1ccc2c(c1)OCO2
> 32.9 µg/mL | CC1=Nc2cccc([N+](=O)[O-])c2NC(=O)C1
39.7 µg/mL | CN1CCCC(OC(=O)c2ccccc2F)C1.Cl (stereo not drawn)
12.7 µg/mL (≈ 58.4 µM) | CC(=O)c1nc(-c2ccccc2)sc1C
> 59.3 µg/mL | Cc1cccc(N2CCN(C(=O)[C@H](C)N3C(=O)C4CC=CCC4C3=O)CC2)c1C (stereo partly drawn)
8.3 µg/mL (≈ 20.2 µM) | O=C(CNS(=O)(=O)c1ccc(Cl)cc1)N1CCN(c2ccc(F)cc2)CC1
1 µg/mL (≈ 2.67 µM) | Cc1ccc(OCC(=O)Nc2ccc(NC(=O)c3ccccc3)c(C)c2)cc1
< 0.7 µg/mL | CCOC(=O)c1c(C)n(C)c2cc(Br)c(OC)cc12
53.6 µg/mL (≈ 146 µM) | COc1ccc(-c2cc(C(F)(F)F)c(C#N)c(SCC(=O)O)n2)cc1
14 µg/mL (≈ 39.8 µM) | COc1cccc(C(=O)COc2cccc(NC(=O)c3ccco3)c2)c1
17.8 µg/mL (≈ 57.2 µM) | CC(=O)/C=C/c1ccccc1Oc1c(F)c(F)nc(F)c1F
30.1 µg/mL (≈ 124 µM) | N#C/C(=C\c1ccc(O)cc1)C(=O)N1CCCC1
> 49.4 µg/mL | Cc1cccc(-c2noc(CCCC(=O)NCC3CCCO3)n2)c1 (stereo not drawn)
> 50.6 µg/mL | COc1cc2ccccc2cc1C(=O)N1CCCC(C(F)(F)F)C1 (stereo not drawn)
> 51.8 µg/mL | CCOC(=O)C1CCN(C(=O)COC(=O)/C=C/c2ccccc2)CC1
> 43.9 µg/mL | Cc1occc1-c1nnc(SCC(=O)NC2CC2)n1C
29.6 µg/mL (≈ 96.3 µM) | COc1cccc(CN(C)Cc2c(O)ccc3ccccc23)c1
33.5 µg/mL (≈ 140 µM) | O=C(C(Cl)c1ccccc1)N1CCOCC1 (stereo not drawn)
> 47 µg/mL | c1ccc2c(c1)OCC(CNCC1COc3ccccc3O1)O2 (stereo not drawn)
32.9 µg/mL (≈ 100 µM) | Cc1cc(/C=C(\C#N)C(=O)N2CCOCC2)c(C)n1C1CCCC1

solubility kinetic | SMILES
4.2 µg/mL (≈ 14.5 µM) | Cn1cccc1C(=O)OCC(=O)Nc1sccc1C#N
30.4 µg/mL (≈ 118 µM) | O=C(Nc1ccccc1C(F)(F)F)C1CCCC1
40.2 µg/mL (≈ 116 µM) | CC(NC(=O)COC(=O)COc1ccc(Cl)cc1)c1ccccc1 (stereo not drawn)
34.9 µg/mL (≈ 105 µM) | Cc1ccc2c(c1)N(Cc1ccc([N+](=O)[O-])cc1)C=NS2(=O)=O
6.3 µg/mL (≈ 18.8 µM) | COC(=O)CN1C(=O)N/C(=C/c2cc3c(cc2OC)OCO3)C1=O
> 37.5 µg/mL | COc1ccc(/C(C)=N/N2CCOCC2)c(O)c1
> 36.8 µg/mL | CC1(C)CC(=O)C(N=Nc2cccnc2)=C(O)C1
51 µg/mL (≈ 144 µM) | CC(C)(C)OC(=O)N1CCC(CNC(=O)c2ccc(F)cc2F)CC1
29.1 µg/mL (≈ 145 µM) | C=CCNc1nc2ccccc2c(=O)[nH]1
> 41.3 µg/mL | O=C(CSc1nnc(-c2ccccc2)o1)NC1CC1
10.2 µg/mL (≈ 34.7 µM) | C=CCn1c(COc2ccccc2OC)nc2ccccc21
6.5 µg/mL (≈ 20 µM) | Nc1nc(Nc2cccc(Cl)c2)nc(NCCO)c1[N+](=O)[O-]
43.6 µg/mL (≈ 105 µM) | CCOc1cc(N2CCOCC2)c(OCC)cc1NC(=O)C(C)Oc1ccccc1 (stereo not drawn)
> 50 µg/mL | CCOC(=O)N1CCN(CCC(=O)Nc2cc(C)ccc2C)CC1
> 56.6 µg/mL | CCCn1nc(C(=O)N2CCN(c3ccccn3)CC2)c2ccccc2c1=O
> 68.2 µg/mL | COc1ccc(C(=O)OCC(=O)N2C(C)CCCC2C)cc1S(=O)(=O)N1CCOCC1 (stereo not drawn)
47.5 µg/mL (≈ 142 µM) | O=C(CNC(=O)c1ccccc1F)NCCc1ccc(Cl)cc1
> 59.3 µg/mL | O=C(CNC(=O)c1ccc(Br)o1)NCC1COc2ccccc2O1 (stereo not drawn)
> 41.2 µg/mL | Cc1cc(C)c(NC(=O)CCCN2CCCC2)c(C)c1
> 49.6 µg/mL | C=CCNC(=O)N1CCCC(C(=O)c2cccc(OC(C)C)c2)C1 (stereo not drawn)
6.2 µg/mL (≈ 22.4 µM) | Fc1ccccc1N1CCN(CC2CCCCC2)CC1
> 31.5 µg/mL | Cc1cc(-c2ccccc2)n2ncnc2n1
> 47.3 µg/mL | COCCSc1ccccc1C(=O)NCCc1ccccc1
> 52.4 µg/mL | CCCCN(C)C(=O)c1cc2c(s1)-c1ccccc1S(=O)(=O)C2

solubility kinetic | SMILES
34.2 µg/mL (≈ 120 µM) | Cc1ccc2[nH]cc(CCNC(=O)C3CCCCC3)c2c1
1 µg/mL (≈ 3.52 µM) | Cc1ccc(C)c(NC(=O)Nc2ccc3c(c2)OCO3)c1
0.4 µg/mL (≈ 1.28 µM) | CC(C)c1nc2cc(Cl)ccc2n(Cc2ccccc2)c1=O
> 50.4 µg/mL | O=C(CSCc1ccc(Cl)cc1)Nc1cccc(C(=O)O)c1
26.6 µg/mL (≈ 88.6 µM) | N/C(=N\OC(=O)Cc1ccc([N+](=O)[O-])cc1)c1ccccn1
4.6 µg/mL (≈ 13.4 µM) | CN(Cc1ccc2ccccc2c1)C(=O)c1ccc(C(F)(F)F)cc1
2 µg/mL (≈ 7.06 µM) | Cc1ccc(OCCCn2c(=O)oc3ccccc32)cc1
> 44.9 µg/mL | COc1cc2ccccc2cc1C(=O)N1CC(C)OC(C)C1 (stereo not drawn)
> 30.2 µg/mL | Cc1ccccc1NC(=O)c1ccco1
6.7 µg/mL (≈ 19.7 µM) | COc1cccc(/C=C/C(=O)OCC(=O)NCCc2ccccc2)c1
> 46 µg/mL | O=C(NCC(c1ccco1)N1CCOCC1)C1CCCCC1 (stereo not drawn)
> 43.8 µg/mL | Cc1cc(OC(=O)c2cccc(F)c2)c([N+](=O)[O-])c(=O)[nH]1
37.3 µg/mL (≈ 128 µM) | COCC1CCN(C(=O)c2oc3c(F)cccc3c2C)C1 (stereo not drawn)
42.1 µg/mL (≈ 125 µM) | CC1CN(C)C(C)CC1OC(=O)C(c1ccccc1)c1ccccc1 (stereo not drawn)
36.5 µg/mL (≈ 146 µM) | O=C(O)c1ccccc1OCCN1CCCC1=O
10.3 µg/mL (≈ 47.4 µM) | Cn1c(=O)cc(Nc2ccccc2)[nH]c1=O
6.9 µg/mL (≈ 16.2 µM) | O=C(/C=C/c1ccc(S(=O)(=O)N2CCOCC2)cc1)Nc1ccc(F)c(F)c1F
> 33.6 µg/mL | CCn1c(=O)cc(C(F)(F)F)[nH]c1=S
> 48.4 µg/mL | Cc1noc(C)c1COC(=O)CNC(=O)c1ccc(Cl)cc1
> 39.3 µg/mL | O=C(NCc1ccncc1)C(=O)Nc1nccs1
28.7 µg/mL (≈ 62 µM) | CC(C(=O)Nc1ccc(S(=O)(=O)N2CCCC2)cc1)N(C)CC(=O)Nc1cccc(F)c1 (stereo not drawn)
> 46.3 µg/mL | Cc1cccc(NC(=O)c2cccc(N3C(=O)CCC3=O)c2)c1
